Columns and labels:
[1] = system: dextran-induced inflammatory edema; assay: Dextran-induced paw inflammatory edema; assay type: in vivo, Sprague Dawley rats; details: 5 mg/kg iv 30 min before dextran; 3 hours
Description: (§1) In order to determine the influence of compounds on the development of inflammation, Sprague Dawley rats were first injected intravenously with either vehicle or test compound at 5 mg/kg, and then 30 min later either PBS (as a control), dextran or platelet activating factor (PAF) was injected into the plantar surface of the hindlimbs, dextran and PAF being known to induce localized inflammatory responses marked by edema. Three hours later, paw dimensions were measured using a caliper and paw volumes calculated; data are shown as the increase in paw volume (mm^3) as compared to controls (paws injected with PBS).

[2] = system: PAF-induced inflammatory edema; assay: PAF-induced paw inflammatory edema; assay type: in vivo, Sprague Dawley rats; details: 5 mg/kg iv 30 min before PAF; 3 hours
Description: as §1

[3] = target: T1, human p120γ subunit of PI3K (Homo sapiens, UniProt P48736); assay: PI3K p120γ enzymatic activity at two concentrations (Upstate Group); assay type: biochemical; details: 100% = no inhibition, 0% = complete inhibition
T1 construct: Upstate Group, Charlottesville, Va; (ran the assay under contract)
Description: The ability of compounds to inhibit the activity of PI3K kinase was determined using biochemical assays. In a first assay, compounds were tested at two concentrations (0.5 and 5 μM) for their ability to inhibit enzymatic activity of the human p120γ subunit of PI3K (the assay being performed under contract by Upstate Group, Charlottesville, Va.).

acute myocardial infarct = assay: Rat acute myocardial infarct model (60 min LAD occlusion, reperfusion); assay type: in vivo, Sprague-Dawley rats; details: rat
Description: A rodent model of acute myocardial infarct, in which the proximal left anterior descending coronary artery (LAD) is occluded for 60 min followed by reperfusion, was used to determine whether test agents reduced infarct size at 24 hours.
Myocardial infarcts were created in Sprague-Dawley rats (200-300 g body weight) by a 60 min occlusion of the LAD followed by LAD reperfusion. At 90 min post-reperfusion, either vehicle alone or test agents were injected IV. At 24 hr post-treatment, the ischemic zone (area at-risk, AAR) was delineated by re-ligation of the LAD followed by IV injection of alkali blue dye, after which hearts were sectioned along the short axis and stained using triphenyltetrazolium chloride to delineate viable from infarcted myocardium. Photographic images were then analyzed using morphometric software to calculate infarct area as a percent of the at-risk area.
The following studies were performed as described above, except that the timing of 3-[2,4-diamino-6-(3-hydroxyphenyl)pteridin-7-yl] phenol dihydrochloride salt administration (at 0.1 mg/kg) was varied. In one group, 3-[2,4-diamino-6-(3-hydroxyphenyl)pteridin-7-yl] phenol dihydrochloride salt was administered at both 60 and 240 min post-occlusion.
In a porcine MI model (90 min of LAD occlusion followed by complete reperfusion), a single 0.3 mg/kg IV bolus delivered 30 min post-reperfusion reduced infarct size by […] vs. controls (40% vs. 56%, N=12-13, P=0.03).

VEGF-induced edema = assay: Miles assay, VEGF-induced edema; assay type: in vivo, Sprague-Dawley rats; details: general statement in description
Description: A rodent model of vascular edema, the Miles assay, was used to screen compounds for their ability to inhibit VEGF-induced edema.
Sprague-Dawley rats were first injected IV with vehicle alone or test agent, followed by IV injection of Evans blue dye, followed by intradermal injections of saline and VEGF (200 ng/injection site) along both shaved flanks. After 45 min, intradermal injection sites were photographed and then scored by a blinded observer for extravasation of Evans blue dye into the dermis (dermal bluing) according to a 4 point scoring system (3=maximal bluing, ≧75% of response in vehicle-treated animals; 2=medium bluing, >25% but <75% of vehicle-treated animals; 1=minimal bluing, ≦25% of vehicle-treated animals; 0=bluing equivalent to saline injection sites on same animal). Individual scores for 4 injection sites (from 2 separate animals) were summed and are shown as a scale of 0-12, with a lower score indicating the greater anti-edema activity; note that all vehicle-treated groups score a value of 12, based on the scoring system outlined above.

[4] = system: VEGF-induced Akt kinase phosphorylation; assay: VEGF-induced Akt phosphorylation in lung, Western blot; assay type: in vivo, Sprague Dawley rats
Description: The ability of compounds to impact PI3K activity in vivo was assessed by examining compound influence on vascular endothelial growth factor (VEGF)-induced Akt kinase phosphorylation (VEGF stimulation being an inducer of PI3K activity, and Akt kinase being a direct target of PI3K). Sprague Dawley rats were first injected intravenously (iv) with either vehicle or test compound at 5 mgfkg, and then 30, 60 or 120 min later injected iv with VEGF. Five minutes later, lungs were harvested and used to generate tissue lysates, which were then probed for phosphorylated Akt using Western blot technology; non-phosphorylated Akt was also probed in the same blots as a loading control. In other studies, test compounds was dosed at either 0.5 or 5 mg/kg, and VEGF delivered 60 min later, in order to assess the dose-response relationship of a compound's activities.

ARDS-induced edema = assay: Oleic acid induced ARDS lung edema, wet/dry weight; assay type: in vivo, NIH Swiss mice; details: 1.5 mg/kg oleic acid i.p., 4 hours; compound in the 0.5 mg/kg range
Description: FIG. 12 illustrates the effects of invention compounds for their capacity to inhibit edema associated with Acute Respiratory Distress Syndrome (ARDS). NIH Swiss mice were given an intraperitoneal injection of 1.5 mg/kg Oleic Acid of (in this example formulated in saline) and/or invention compounds.
NIH Swiss mice were given an intraperitoneal injection of 1.5 mg/kg Oleic Acid of (in this example formulated in saline) and/or invention compounds.

B 16 melanoma cells = assay: B16 melanoma lung metastases, effect on IL-2 anti-tumor activity; assay type: in vivo, C57 mice; details: 100,000 U IL-2 and/or compound I.P. every 8 hours for 5 days; compound D 1 mg/kg range, compound E 0.1 mg/kg range
Description: Invention compound concentrations are listed in parenthesis in mg/kg while IL-2 concentration is given in parenthesis kilounits.
Syngeneic B 16 melanoma cells were injected I.V. in order to establish lung metastases in C57 mice. Beginning 10 days after cells were injected, 100,000 U of IL-2 and/or indicated invention compounds were given I.P. every 8 hours for 5 days. Animals were sacrificed at day 18, lungs were collected and scored using image analysis software. N=5/group, p<0.02. […] Invention compound concentrations are listed in parenthesis in mg/kg while IL-2 concentration is given in parenthesis kilounits.

CTLL2 = assay: IL-2 dependent T-cell proliferation, XTT assay; assay type: cell-based, mouse; details: 96 hours, 50 pg human recombinant IL-2; compound E: in the therapeutic range (<1 μM)
Description: An IL-2 dependent […] T cell line, CTLL2, was used to evaluate IL-2 dependent proliferation over 96 hours in the presence of 50 pg of human recombinant IL-2 (R&D Systems) and the indicated compounds using the XTT assay.

T1 sequence (P48736 whole entry): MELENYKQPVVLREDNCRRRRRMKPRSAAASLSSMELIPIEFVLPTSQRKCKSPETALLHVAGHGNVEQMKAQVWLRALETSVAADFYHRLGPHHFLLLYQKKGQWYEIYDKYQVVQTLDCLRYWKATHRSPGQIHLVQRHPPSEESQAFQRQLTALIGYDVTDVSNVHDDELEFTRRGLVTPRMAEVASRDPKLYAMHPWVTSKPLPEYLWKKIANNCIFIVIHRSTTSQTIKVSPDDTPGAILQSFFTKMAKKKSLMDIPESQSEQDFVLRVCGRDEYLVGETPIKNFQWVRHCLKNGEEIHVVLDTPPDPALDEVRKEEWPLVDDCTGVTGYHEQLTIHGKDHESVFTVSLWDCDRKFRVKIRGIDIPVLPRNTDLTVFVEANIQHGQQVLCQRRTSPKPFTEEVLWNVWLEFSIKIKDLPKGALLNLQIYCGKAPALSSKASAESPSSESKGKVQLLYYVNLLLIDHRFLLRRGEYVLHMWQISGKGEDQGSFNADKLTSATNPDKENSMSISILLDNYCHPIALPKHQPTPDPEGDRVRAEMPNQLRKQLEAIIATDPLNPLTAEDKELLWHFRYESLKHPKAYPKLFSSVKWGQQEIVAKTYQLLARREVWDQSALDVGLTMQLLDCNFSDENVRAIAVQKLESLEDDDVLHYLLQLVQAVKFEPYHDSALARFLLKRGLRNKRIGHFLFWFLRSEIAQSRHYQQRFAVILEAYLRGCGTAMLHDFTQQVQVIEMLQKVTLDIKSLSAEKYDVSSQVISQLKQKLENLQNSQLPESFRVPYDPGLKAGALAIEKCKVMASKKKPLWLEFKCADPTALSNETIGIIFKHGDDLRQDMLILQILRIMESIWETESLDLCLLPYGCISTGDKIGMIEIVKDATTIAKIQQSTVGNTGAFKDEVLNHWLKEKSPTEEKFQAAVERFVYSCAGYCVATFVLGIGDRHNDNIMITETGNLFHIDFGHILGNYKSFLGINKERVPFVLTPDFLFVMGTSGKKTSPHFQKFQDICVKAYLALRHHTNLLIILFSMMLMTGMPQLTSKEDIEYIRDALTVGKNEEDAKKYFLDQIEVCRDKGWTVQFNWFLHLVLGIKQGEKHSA

SMILES	dextran-induced increase in paw volume [1]	PAF-induced increase in paw volume [2]	remaining activity at 0.5 µM ([3]; 0.5 μM, read-out: Percent Control Value at 0.5 μM) [%]	remaining activity at 5 µM ([3]; 5 μM, read-out: Percent Control Value at 5 μM) [%]	infarct area as percentage of ischemic territory (mean±SD) (acute myocardial infarct; 0.3 mg/kg IV bolus 60 min into reperfusion, 24 hr, vehicle 62%±7) [%]	infarct reduction with varied dosing time (acute myocardial infarct; dosing immediately at reperfusion or out to 3 hr later)	inhibition of edema formation in VEGF-treated animals (VEGF-induced edema)	Inhibition of VEGF-induced Akt phosphorylation, time course ([4]; 5 mg/kg iv, VEGF 30, 60 or 120 min later, lung lysates)	Inhibition of VEGF-induced Akt phosphorylation, dose-response ([4]; 0.5 or 5 mg/kg iv, VEGF 60 min later, lung lysates)	blockade of Akt phosphorylation following VEGF delivery ([4]; general statement in description)	reduction of ARDS-induced edema (ARDS-induced edema) [%]	impact on the anti-tumor activity of IL-2 (B 16 melanoma cells)	impact on IL-2 induced T-cell proliferation (CTLL2)
Nc1nc(N)c2nc(-c3cccc(O)c3)c(-c3cccc(O)c3)nc2n1 [6,7-bis-(3-hydroxyphenyl)-pteridine-2,4-diamine]	blocked these responses	blocked these responses	47	5	35	Equivalent infarct reductions	inhibit edema formation in VEGF-treated animals	Inhibition of VEGF-induced Akt phosphorylation was seen at all time-points examined	at all 6,7-bis-(3-hydroxyphenyl)-pteridine-2,4-diamine doses examined	blockade of Akt phosphorylation			
Nc1nc(N)c2nc(-c3cccc(O)c3)c(-c3cccc(O)c3)nc2n1.O=S(=O)(O)O [compound E]											> 50	no significant impact	no significant impact
O=C(O)c1ccccc1C(=O)Nc1ccccc1-c1cc2ccccc2[nH]1 [compound D]												no significant impact	no significant impact
